Tests used:
Type in all cases: functional
KM12 = assay: Growth inhibition of human KM12 cells at 10 uM after 48 hrs by sulforhodamine B assay; conditions: KM12, 48 h, values are per cent of control
[1] = Growth inhibition of human SKOV3 cells at 10 uM after 48 hrs by sulforhodamine B assay; conditions: SK-OV-3, 48 h, values are per cent of control
[2] = Growth inhibition of human OVCAR4 cells at 10 uM after 48 hrs by sulforhodamine B assay; conditions: OVCAR-4, 48 h, values are per cent of control
[3] = Growth inhibition of human NCI-ADR-RES cells at 10 uM after 48 hrs by sulforhodamine B assay; conditions: values are per cent of control
SR = assay: Growth inhibition of human SR cells at 10 uM after 48 hrs by sulforhodamine B assay; conditions: values are per cent of control
[4] = Growth inhibition of human SW620 cells at 10 uM after 48 hrs by sulforhodamine B assay; conditions: SW-620, 48 h, values are per cent of control
K562 = assay: Growth inhibition of human K562 cells at 10 uM after 48 hrs by sulforhodamine B assay; conditions: K562, 48 h, values are per cent of control
MDA-MB-231 = assay: Growth inhibition of human MDA-MB-231 cells at 10 uM after 48 hrs by sulforhodamine B assay; conditions: MDA-MB-231, 48 h, values are per cent of control
[5] = Growth inhibition of human OVCAR5 cells at 10 uM after 48 hrs by sulforhodamine B assay; conditions: OVCAR-5, 48 h, values are per cent of control
ACHN = assay: Growth inhibition of human ACHN cells at 10 uM after 48 hrs by sulforhodamine B assay; conditions: values are per cent of control
[6] = Growth inhibition of human Hs 578T cells at 10 uM after 48 hrs by sulforhodamine B assay; conditions: values are per cent of control
[7] = Growth inhibition of human SF268 cells at 10 uM after 48 hrs by sulforhodamine B assay; conditions: SF-268, 48 h, values are per cent of control
[8] = Growth inhibition of human UACC62 cells at 10 uM after 48 hrs by sulforhodamine B assay; conditions: UACC-62, 48 h, values are per cent of control
M14 = assay: Growth inhibition of human M14 cells at 10 uM after 48 hrs by sulforhodamine B assay; conditions: M14, 48 h, values are per cent of control
MDA-MB-468 = assay: Growth inhibition of human MDA-MB-468 cells at 10 uM after 48 hrs by sulforhodamine B assay; conditions: MDA-MB-468, 48 h, values are per cent of control
SK-MEL-5 = assay: Growth inhibition of human SK-MEL-5 cells at 10 uM after 48 hrs by sulforhodamine B assay; conditions: SK-MEL-5, 48 h, values are per cent of control
NCI-H460 = assay: Growth inhibition of human NCI-H460 cells at 10 uM after 48 hrs by sulforhodamine B assay; conditions: NCI-H460, 48 h, values are per cent of control
[9] = Growth inhibition of human COLO205 cells at 10 uM after 48 hrs by sulforhodamine B assay; conditions: COLO 205, 48 h, values are per cent of control
HT-29 = assay: Growth inhibition of human HT-29 cells at 10 uM after 48 hrs by sulforhodamine B assay; conditions: HT-29, 48 h, values are per cent of control
[10] = Growth inhibition of human HCT116 cells at 10 uM after 48 hrs by sulforhodamine B assay; conditions: HCT-116, 48 h, values are per cent of control
[11] = Growth inhibition of human BT549 cells at 10 uM after 48 hrs by sulforhodamine B assay; conditions: BT-549, 48 h, values are per cent of control
T47D = assay: Growth inhibition of human T47D cells at 10 uM after 48 hrs by sulforhodamine B assay; conditions: values are per cent of control
U-251 = assay: Growth inhibition of human U251 cells at 10 uM after 48 hrs by sulforhodamine B assay; conditions: U-251, 48 h, values are per cent of control
NCI-H226 = assay: Growth inhibition of human NCI-H226 cells at 10 uM after 48 hrs by sulforhodamine B assay; conditions: NCI-H226, 48 h, values are per cent of control
SN12C = assay: Growth inhibition of human SN12C cells at 10 uM after 48 hrs by sulforhodamine B assay; conditions: values are per cent of control
[12] = Growth inhibition of human HCT15 cells at 10 uM after 48 hrs by sulforhodamine B assay; conditions: HCT-15, 48 h, values are per cent of control
[13] = Growth inhibition of human TK10 cells at 10 uM after 48 hrs by sulforhodamine B assay; conditions: TK-10, 48 h, values are per cent of control
[14] = Growth inhibition of human SNB19 cells at 10 uM after 48 hrs by sulforhodamine B assay; conditions: SNB-19, 48 h, values are per cent of control
[15] = Growth inhibition of human Caki1 cells at 10 uM after 48 hrs by sulforhodamine B assay; conditions: CAKI-1, 48 h, values are per cent of control
[16] = Growth inhibition of human SF295 cells at 10 uM after 48 hrs by sulforhodamine B assay; conditions: SF-295, 48 h, values are per cent of control
[17] = Growth inhibition of human DU145 cells at 10 uM after 48 hrs by sulforhodamine B assay; conditions: DU-145, 48 h, values are per cent of control
[18] = Growth inhibition of human SF539 cells at 10 uM after 48 hrs by sulforhodamine B assay; conditions: SF-539, 48 h, values are per cent of control
MDA-MB-435 = assay: Growth inhibition of human MDA-MB-435 cells at 10 uM after 48 hrs by sulforhodamine B assay; conditions: MDA-MB-435, 48 h, values are per cent of control
[19] = Growth inhibition of human LOXIMVI cells at 10 uM after 48 hrs by sulforhodamine B assay; conditions: LOX IMVI, values are per cent of control
NCI-H23 = assay: Growth inhibition of human NCI-H23 cells at 10 uM after 48 hrs by sulforhodamine B assay; conditions: NCI-H23, 48 h, values are per cent of control
[20] = Growth inhibition of human OVCAR8 cells at 10 uM after 48 hrs by sulforhodamine B assay; conditions: OVCAR-8, 48 h, values are per cent of control
NCI-H522 = assay: Growth inhibition of human NCI-H522 cells at 10 uM after 48 hrs by sulforhodamine B assay; conditions: NCI-H522, 48 h, values are per cent of control
A498 = assay: Growth inhibition of human A498 cells at 10 uM after 48 hrs by sulforhodamine B assay; conditions: A498, 48 h, values are per cent of control
A549 = assay: Growth inhibition of human A549/ATCC cells at 10 uM after 48 hrs by sulforhodamine B assay; conditions: A549, 48 h, values are per cent of control
NCI-H322M = assay: Growth inhibition of human NCI-H322M cells at 10 uM after 48 hrs by sulforhodamine B assay; conditions: values are per cent of control

For `COc1ccc(/C=C(\C#N)c2ccc3c(c2)OCO3)cc1`, the growth, % of control at 10 µM (KM12) was 30%, the growth, % of control at 10 µM [1] was 28.8% and the growth, % of control at 10 µM [2] was 67.3%. For the same compound, the growth, % of control at 10 µM [3] was 11.6%, the growth, % of control at 10 µM (SR) was 11.8% and the growth, % of control at 10 µM [4] was 19.6%. It also gave a growth, % of control at 10 µM (K562) of 15.8%, a growth, % of control at 10 µM (MDA-MB-231) of 49.6% and a growth, % of control at 10 µM [5] of 49.6%. It also gave a growth, % of control at 10 µM (ACHN) of 45.7%, a growth, % of control at 10 µM [6] of 27.2% and a growth, % of control at 10 µM [7] of 38.5%. For the same compound, the growth, % of control at 10 µM [8] was 37.5%, the growth, % of control at 10 µM (M14) was 10.5% and the growth, % of control at 10 µM (MDA-MB-468) was 1.2%. The growth, % of control at 10 µM (SK-MEL-5) was 16.4%, the growth, % of control at 10 µM (NCI-H460) was 15.5% and the growth, % of control at 10 µM [9] was 11.9%. For the same compound, the growth, % of control at 10 µM (HT-29) was 6%, the growth, % of control at 10 µM [10] was 17.4% and the growth, % of control at 10 µM [11] was 30.3%. The growth, % of control at 10 µM (T47D) was 35.8%, the growth, % of control at 10 µM (U-251) was 16.5% and the growth, % of control at 10 µM (NCI-H226) was 71.8%. For the same compound, the growth, % of control at 10 µM (SN12C) was 37.2%, the growth, % of control at 10 µM [12] was 17.8% and the growth, % of control at 10 µM [13] was 32.2%. For the same compound, the growth, % of control at 10 µM [14] was 46%, the growth, % of control at 10 µM [15] was 24.8% and the growth, % of control at 10 µM [16] was 11.2%. It also gave a growth, % of control at 10 µM [17] of 28.3%, a growth, % of control at 10 µM [18] of -13.8% and a growth, % of control at 10 µM (MDA-MB-435) of -29.1%. It also gave a growth, % of control at 10 µM [19] of 33.3%, a growth, % of control at 10 µM (NCI-H23) of 43.2% and a growth, % of control at 10 µM [20] of 26.7%. The growth, % of control at 10 µM (NCI-H522) was -2.4%, the growth, % of control at 10 µM (A498) was -6.2% and the growth, % of control at 10 µM (A549) was 32.3%. For the same compound, the growth, % of control at 10 µM (NCI-H322M) was 35.7%.
